Experiments:
[1] = target: T1, PaTrmD (tRNA (m^1G37) methyltransferase TrmD, PA14_15990) (Pseudomonas aeruginosa, UniProt Q02RL6); test: ITC with refolded PaTrmD; format: binding
T1 sequence (Q02RL6 5-250): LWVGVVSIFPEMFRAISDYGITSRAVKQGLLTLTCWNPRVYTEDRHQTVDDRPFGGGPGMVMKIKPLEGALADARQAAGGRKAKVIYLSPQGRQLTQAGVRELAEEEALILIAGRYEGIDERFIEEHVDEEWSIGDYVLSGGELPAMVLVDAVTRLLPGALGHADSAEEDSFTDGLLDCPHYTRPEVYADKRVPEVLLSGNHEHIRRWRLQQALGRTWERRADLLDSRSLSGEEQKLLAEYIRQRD

[2] = target: T1, PaTrmD (tRNA (m^1G37) methyltransferase TrmD, PA14_15990); test: crystal structures; format: biochemical
PaTrmD (refolded) = target: T2, PaTrmD (refolded) (Pseudomonas aeruginosa PA14, UniProt Q02RL6 5-250); test: ITC
T2 sequence: T1 sequence (Q02RL6 5-250)

Molecule: C[S+](CC[C@H](N)C(=O)[O-])C[C@H]1O[C@@H](n2cnc3c(N)ncnc32)[C@H](O)[C@@H]1O (stereo partly drawn) [SAM, S-adenosyl-L-methionine]
- Kd [1]: 14.4 ± 3.1 µM

Molecule: Nc1ncnc2c1ncn2[C@@H]1O[C@H](C[C@@H](N)CC[C@H](N)C(=O)O)[C@@H](O)[C@H]1O [SFG, sinefungin]
- Ki [2]: 0.41 ± 0.07 µM

B1: tRNALeu(GAG) (structured_RNA)
RNA: GGGGCCGAGGUGGUGGAAUUGGUAGACACGCUACCUUGAGGUGGUAGUGGCCAUAGGCUGUAGGGGUUCGAGUCCCCUCCUCGGUACCA
modifications: none (unmodified transcript)
- Kd (PaTrmD (refolded)): 13.6 ± 3 µM

Reference: PMC6795141 (RNA, 2019)
